From US20220127297A1, “Novel Antibacterial 3"-Derivatives Of 4,6-Disubstituted 2,5-Dideoxystreptamine Aminoglycoside Antibiotics” (AGILeBiotics B.V., priority 2018, published 2022)
≈ marks a conversion by molar mass, not a printed value.

Test system: clinical isolates of multidrug-resistant Klebsiella pneumoniae (and ATCC43816)
Assay: MIC determination at Fidelta, clinical isolates
Format: cell-based
Details: Klebsiella pneumoniae
Excerpt: 3.4.2 MIC Determination at Fidelta (Croatia)
Tested reference compounds. Amikacin sulfate (Cat. No. 01693, Chem-Impex), Gentamicin sulfate (Cat. No. G4918, Sigma Aldrich), Ceftazidime Pentahydrate (Cat. No. 1098130, USP), Meropenem (Cat. No. 1392454, USP), Tobramycin (Cat. No. 1667508, USP).
Microbial strains. Klebsiella pneumoniae KP-1919 (abdomen), Klebsiella pneumoniae KP-1935 (urine), Klebsiella pneumoniae KP-1936 (abscess), Klebsiella pneumoniae KP-1937 (blood), Klebsiella pneumoniae KP-1942 (urine), Klebsiella pneumoniae KP-1944 (blood), Klebsiella pneumoniae KP-2027 (tracheal aspirate), Klebsiella pneumoniae KP-2029 (urine), Klebsiella pneumoniae KP-2030 (trachea), Klebsiella pneumoniae KP-2031 (skin), Klebsiella pneumoniae KP-2032 (urine), Klebsiella pneumoniae KP-2033 (urine), Klebsiella pneumoniae KP-2034 (urine), Klebsiella pneumoniae KP-2035 (urine), Klebsiella pneumoniae KP-2036 (urine), Klebsiella pneumoniae KP-2037 (urine), Klebsiella pneumoniae ATCC 43816, Pseudomonas aeruginosa PA-1948 (wound), Pseudomonas aeruginosa PA-1949 (urine), Pseudomonas aeruginosa PA-1950 (sputum), Pseudomonas aeruginosa PA-1952 (wound), Pseudomonas aeruginosa PA-1953 (urine), Pseudomonas aeruginosa PA-1954 (sputum), Pseudomonas aeruginosa PA-1967 (blood), Pseudomonas aeruginosa ATCC27853, Acinetobacter baumannii AB-1931 (urine), Acinetobacter baumannii AB-1932 (urine), Acinetobacter baumannii AB-2017 (bronchial aspirate), Acinetobacter baumannii AB-2018 (skin), Acinetobacter baumannii AB-2019 (bronchial aspirate), Acinetobacter baumannii AB-1964 (blood), Acinetobacter baumannii AB-2025 (skin), Acinetobacter baumannii AB-2026 (skin), Acinetobacter baumannii ATCC17978, methicillin-resistant Staphylococcus aureus MRSA-1995 (liquor), methicillin-resistant Staphylococcus aureus MRSA-1998 (wound), methicillin-resistant Staphylococcus aureus MRSA-1999 (skin), methicillin-resistant Staphylococcus aureus MRSA-2003 (wound), vancomycin-resistant Enterococcus faecium VRE-2005 (urine), vancomycin-resistant Enterococcus faecium VRE-2006 (urine), vancomycin-resistant Enterococcus faecium VRE-2007 (urine), vancomycin-resistant Enterococcus faecium VRE-2008 (urine), vancomycin-resistant Enterococcus faecium VRE-2009 (urine), vancomycin-resistant Enterococcus faecium VRE-2010 (urine), vancomycin-resistant Enterococcus faecium VRE-2011 (rectum), vancomycin-resistant Enterococcus faecium VRE-2012 (rectum), vancomycin-resistant Enterococcus faecium VRE-2013 (rectum).
Culture media and equipment. BBL™ Mueller Hinton Broth (REF 275730, Lot. 7009699, Becton Dickinson); Mueller Hinton Agar 2 (Ref. No. 97580-500G-F, Lot. No. BCBV4646, Sigma); Cellstar, 96-well plates, U-bottom (Cat. No. 650180, Lot. No. E14123EB, Greiner Bio-one); 96-well deep well plate, 1 mL (Cat. No. 278606, Nunc); Incubator (Binder); Laminar flow (Thermo Scientific); BioPhotometer (Eppendorf); DEN-1B (McFarland Densitometer, Biosan); McFarland standards (polymer microparticle suspension, Biosan).
Compound preparation. For testing, 5 mg/mL DMSO solutions of the test compounds and reference antibiotics were used. Out of these DMSO solutions, 43.5 μL was transferred to 1656.5 μL of MH media in a deep well plate. Out of these working solutions 100 μL was transferred to wells in the third column of 96-well plates. Plates are previously filled with 50 μL of MH media in all wells except for the wells in the third column. After compound and antibiotic addition, 50 μL was transferred from the third to the fourth column, then from the fourth to the fifth and so on. In this manner, the compounds and antibiotics were plated in 96-well plate in serial two-fold dilutions giving a final concentration range of 64-0.125 μg/mL.
Inoculum preparation. Designations used for clinical isolates were from Fidelta strain collection bank. Microorganisms used were all revived from skim milk storage at −70° C. by plating them on MH agar plates.

Compound `NC[C@H]1O[C@H](O[C@H]2[C@H](O)[C@@H](O[C@H]3O[C@H](CO)[C@@H](O)[C@H](N)[C@H]3O)[C@H](N)C[C@@H]2N)[C@H](N)C[C@@H]1O` [Tobramycin, tobramycin] has an MIC90 (ATCC43816) of 0.125 µg/mL (≈ 0.267 µM), an MIC90 (ATCC43816, KP-1919, Abdomen/VIM, ESBL) of 32 µg/mL (≈ 68.4 µM) and an MIC90 (ATCC43816, KP-1935, Urine/ESBL, NDM) of 32 µg/mL (≈ 68.4 µM). The MIC90 (ATCC43816, KP-1936, Abscess/NDM) was 16 µg/mL (≈ 34.2 µM), the MIC90 (ATCC43816, KP-1937, Blood/VIM, ESBL) was > 64 µg/mL and the MIC90 (ATCC43816, KP-1942, Urine (catheter)/VIM) was 16 µg/mL (≈ 34.2 µM). The MIC90 (ATCC43816, KP-1944, Blood/NDM) was 32 µg/mL (≈ 68.4 µM), the MIC90 (ATCC43816, KP-2027, Tracheal aspirate/ESBL, OXA-48, ColR) was 16 µg/mL (≈ 34.2 µM) and the MIC90 (ATCC43816, KP-2029, Urine/ESBL, OXA-48) was 32 µg/mL (≈ 68.4 µM). For the same compound, the MIC90 (ATCC43816, KP-2030, Trachea/ESBL, OXA-48) was 64 µg/mL (≈ 137 µM), the MIC90 (ATCC43816, KP-2031, Skin/ESBL, OXA-48) was 32 µg/mL (≈ 68.4 µM) and the MIC90 (ATCC43816, KP-2032, Urine/ESBL, OXA-48) was 16 µg/mL (≈ 34.2 µM). For the same compound, the MIC90 (ATCC43816, KP-2033, Urine/OXA-A8) was > 64 µg/mL, the MIC90 (ATCC43816, KP-2034, Urine/ESBL, OXA-48) was 32 µg/mL (≈ 68.4 µM) and the MIC90 (ATCC43816, KP-2035, Urine/ESBL, OXA-48) was 64 µg/mL (≈ 137 µM). For the same compound, the MIC90 (ATCC43816, KP-2036, Urine/ESBL) was 16 µg/mL (≈ 34.2 µM) and the MIC90 (ATCC43816, KP-2037, Urine/ESBL, OXA-48) was 16 µg/mL (≈ 34.2 µM).
